In patent publication US8569302B2, “Inhibitors of flaviviridae viruses” (Gilead Sciences, Inc., priority 2009, dated 2013):

These molecules were tested on human hepatoma Huh-7 cell line harboring a HCV replicon (assay: HCV replicon assay (inhibition of viral replication, luciferase readout)). Conditions: Hepatitis C virus, 72 h, Huh-7 HCV replicon cells, 3 days incubation.
Assay type: cell-based
Description: The anti-HCV activity of the compounds of this invention was tested in a human hepatoma Huh-7 cell line harboring a HCV replicon. The assay comprised the following steps:
Step 1: Compound Preparation and Serial Dilution.
Serial dilution was performed in 100% DMSO in a 384-well plate. A solution containing a compound at 225-fold concentration of the starting final serial dilution concentration was prepared in 100% DMSO and 15 μL added to the pre-specified wells in column 3 or 13 of a polypropylene 384-well plate. The rest of the 384-well plate was filled with 10 μL 100% DMSO except for columns 23 and 24, where 10 μL of 500 μM a HCV protease inhibitor (ITMN-191) in 100% DMSO was added. The HCV protease inhibitor was used a control of 100% inhibition of HCV replication. The plate was then placed on a Biomek FX Workstation to start the serial dilution. The serial dilution was performed for ten cycles of 3-fold dilution from column 3 to 12 or from column 13 to 22.
Step 2: Cell Culture Plate Preparation and Compound Addition
To each well of a black polypropylene 384-well plate, 90 μL of cell media containing 1600 suspended Huh-7 HCV replicon cells was added with a Biotek uFlow Workstation. A volume of 0.4 μL of the compound solution was transferred from the serial dilution plate to the cell culture plate on a Biomek FX Workstation. The DMSO concentration in the final assay condition was 0.44%. The plates were incubated for 3 days at 37° C. with 5% CO2 and 85% humidity.
Step 3: Detection of Cytotoxicity and Inhibition of Viral Replication
a) Assessment of cytotoxicity: The media in the 384-well cell culture plate was aspirated with a Biotek EL405 plate-washer. A volume of 50 μL of a solution containing 400 nM Calcein AM in 100% PBS was added to each well of the plate with a Biotek uFlow Workstation. The plate was incubated for 30 minutes at room temperature before the fluorescence signal ([…]) was measured with a Perkin Elmer Envision Plate Reader.
b) Assessment of inhibition of viral replication: The calcein-PBS solution in the 384-well cell culture plate was aspirated with a Biotek EL405 plate-washer. A volume of 20 μL of Dual-Glo luciferase buffer (Promega, Dual-Glo Luciferase Assay Reagent, cat. #E298B) was added to each well of the plate with a Biotek uFlow Workstation. The plate was incubated for 10 minutes at room temperature. A volume of 20 μL of a solution containing 1:100 mixture of Dual-Glo Stop & Glo substrate (Promega, Dual-Glo Luciferase Assay Reagent, cat. #E313B) and Dual-Glo Stop & Glo buffer (Promega, Dual-Glo Luciferase Assay Reagent, cat. #E314B) was then added to each well of the plate with a Biotek uFlow Workstation. The plate was incubated at room temperature for 10 minutes before the luminescence signal was measured with a Perkin Elmer Envision Plate Reader.
The percent cytotoxicity was determined by calcein AM conversion to fluorescent product. The average fluorescent signal from the DMSO control wells was defined as 100% nontoxic. The individual fluorescent signal from testing compound treated well was divided by the average signal from DMSO control wells and then multiplied by 100% to get the percent viability. The percent anti-HCV replication activity was determined by the luminescence signal from the testing well compared to DMSO control wells. The background signal was determined by the average luminescence signal from the HCV protease inhibitor treated wells and was subtracted from the signal from the testing wells as well as the DMSO control wells. Following 3-fold serial dilutions, the EC50 and CC50 values were calculated by fitting % inhibition at each concentration to the following equation: % inhibition=100%/[EC50/[I])^b+1]
Where b is Hill's coefficient. See, for reference, Hill, A. V., The Possible Effects of the Aggregation of the Molecules of Hæmoglobin on its Dissociation Curves, J. Physiol. 40: iv-vii. (1910). […]
With `C[C@@H]1CC[C@@H](C(=O)N(c2cc(C#CC(C)(C)C)sc2C(=O)O)[C@H]2CC[C@@H](OC3CCOC3)CC2)[C@@H](O)C1` (single isomer, unassigned) [Compound 228] the inhibition at 2 µM was 99.9%.
In the case of `CC1=CCC(C(=O)N(c2cc(C#CC(C)(C)C)sc2C(=O)O)[C@H]2CC[C@H](O[C@H]3CCOC3)CC2)[C@@H](C)C1` (single isomer, unassigned) [Compound 302, 5-(3,3-dimethyl-but-1-ynyl)-3-{(4,6S-dimethyl-cyclohex-3-enecarbonyl)-[4-(tetrahydro-furan-3S-yloxy)-trans-cyclohexyl]-amino}-thiophene-2-carboxylic acid], the inhibition at 2 µM is reported as 100%.
Molecule `CC1=CCC(C(=O)N(c2cc(C#CC(C)(C)C)sc2C(=O)O)[C@H]2CC[C@H](O[C@H]3CCOC3)CC2)[C@H](C)C1` (single isomer, unassigned) [Compound 303] has an inhibition at 2 µM of 99.9%.
`CC1=CCC(C(=O)N(c2cc(C#CC(C)(C)C)sc2C(=O)O)[C@H]2CC[C@H](O[C@@H]3CCOC3)CC2)[C@H](C)C1` (single isomer, unassigned) [Compound 305, 5-(3,3-dimethyl-but-1-ynyl)-3-{(4,6R-dimethyl-cyclohex-3-enecarbonyl)-[4-(tetrahydro-furan-3R-yloxy)-trans-cyclohexyl]-amino}-thiophene-2-carboxylic acid] showed an inhibition at 2 µM of 100%.
`CC1=CCC(C(=O)N(c2cc(C#CC(C)(C)C)sc2C(=O)O)[C@H]2CC[C@H](O[C@@H]3CCOC3)CC2)[C@@H](C)C1` (single isomer, unassigned) [Compound 307, 5-(3,3-Dimethyl-but-1-ynyl)-3-{(4,6S-dimethyl-cyclohex-3-enecarbonyl)-[4-(tetrahydro-furan-3R-yloxy)-trans-cyclohexyl]-amino}-thiophene-2-carboxylic acid] showed an inhibition at 2 µM of 100%.
Work on `CC(C)(C)C#Cc1cc(N(C(=O)[C@H]2CC[C@H](C)CC2)[C@H]2CC[C@H](Oc3ccccn3)CC2)c(C(=O)O)s1` [Compound 1, 5-(3,3-Dimethyl-but-1-ynyl)-3-{(trans-4-methyl-cyclohexanecarbonyl)-[trans-4-(pyridin-2-yloxy)-cyclohexyl]-amino}-thiophene-2-carboxylic acid] yielded an inhibition at 2 µM of 99.8%.
`CC(C)(C)C#Cc1cc(N(C(=O)[C@H]2CC[C@H](C)CC2)[C@H]2CC[C@H](Oc3cnccn3)CC2)c(C(=O)O)s1` [Compound 2, 5-(3,3-Dimethyl-but-1-ynyl)-3-{(trans-4-methyl-cyclohexanecarbonyl)-[trans-4-(pyrazin-2-yloxy)-cyclohexyl]-amino}-thiophene-2-carboxylic acid] was tested, and the inhibition at 2 µM was 99.6%.
For `Cc1ccc(O[C@H]2CC[C@H](N(c3cc(C#CC(C)(C)C)sc3C(=O)O)C(=O)[C@H]3CC[C@H](C)CC3)CC2)nn1` [Compound 3, 5-(3,3-Dimethyl-but-1-ynyl)-3-{(trans-4-methyl-cyclohexanecarbonyl)-[trans-4-(6-methyl-pyridazin-3-yloxy)-cyclohexyl]-amino}-thiophene-2-carboxylic acid], the inhibition at 2 µM was 100%.
With `CC(C)(C)C#Cc1cc(N(C(=O)[C@H]2CC[C@H](C)CC2)[C@H]2CC[C@H](Oc3ncccn3)CC2)c(C(=O)O)s1` [Compound 4, 5-(3,3-Dimethyl-but-1-ynyl)-3-{(trans-4-methyl-cyclohexanecarbonyl)-[trans-4-(pyrimidin-2-yloxy)-cyclohexyl]-amino}-thiophene-2-carboxylic acid] the inhibition at 2 µM was 99.9%.
Work on `CC(C)(C)C#Cc1cc(N(C(=O)[C@H]2CC[C@H](C)CC2)[C@H]2CC[C@H](Oc3cccnc3)CC2)c(C(=O)O)s1` [Compound 5, 5-(3,3-Dimethyl-but-1-ynyl)-3-{(trans-4-methyl-cyclohexanecarbonyl)-[trans-4-(pyridin-3-yloxy)-cyclohexyl]-amino}-thiophene-2-carboxylic acid] yielded an inhibition at 2 µM of 99.8%.
With `CC(C)(C)C#Cc1cc(N(C(=O)[C@H]2CC[C@H](C)CC2)[C@H]2CC[C@H](Oc3cccc(S(C)(=O)=O)n3)CC2)c(C(=O)O)s1` [Compound 6, 5-(3,3-Dimethyl-but-1-ynyl)-3-[[trans-4-(6-methanesulfonyl-pyridin-2-yloxy)-cyclohexyl]-(trans-4-methyl-cyclohexanecarbonyl)-amino]-thiophene-2-carboxylic acid] the inhibition at 2 µM was 99.9%.
`Cc1ccc(O[C@H]2CC[C@H](N(c3cc(C#CC(C)(C)C)sc3C(=O)O)C(=O)[C@H]3CC[C@H](C)CC3)CC2)cn1` [Compound 7, 5-(3,3-Dimethyl-but-1-ynyl)-3-{(trans-4-methyl-cyclohexanecarbonyl)-[trans-4-(6-methyl-pyridin-3-yloxy)-cyclohexyl]-amino}-thiophene-2-carboxylic acid] was tested, and the inhibition at 2 µM was 99.8%.
For `Cc1cccc(O[C@H]2CC[C@H](N(c3cc(C#CC(C)(C)C)sc3C(=O)O)C(=O)[C@H]3CC[C@H](C)CC3)CC2)n1` [Compound 8, 5-(3,3-Dimethyl-but-1-ynyl)-3-{(trans-4-methyl-cyclohexanecarbonyl)-[trans-4-(6-methyl-pyridin-2-yloxy)-cyclohexyl]-amino}-thiophene-2-carboxylic acid], the inhibition at 2 µM was 96.7%.
With `CC(C)(C)C#Cc1cc(N(C(=O)[C@H]2CC[C@H](C)CC2)[C@H]2CC[C@H](Oc3ccc(C#N)cn3)CC2)c(C(=O)O)s1` [Compound 9, 3-[[trans-4-(5-Cyano-pyridin-2-yloxy)-cyclohexyl]-(trans-4-methyl-cyclohexanecarbonyl)-amino]-5-(3,3-dimethyl-but-1-ynyl)-thiophene-2-carboxylic acid] the inhibition at 2 µM was 99.3%.
For `CC(C)(C)C#Cc1cc(N(C(=O)[C@H]2CC[C@H](C)CC2)[C@H]2CC[C@H](Oc3ccc(C(F)(F)F)cn3)CC2)c(C(=O)O)s1` [Compound 10, 5-(3,3-Dimethyl-but-1-ynyl)-3-{(trans-4-methyl-cyclohexanecarbonyl)-[trans-4-(5-trifluoromethyl-pyridin-2-yloxy)-cyclohexyl]-amino}-thiophene-2-carboxylic acid], the inhibition at 2 µM was 56.2%.

Same assay, conditions: Huh-7 HCV replicon cells, 3 days incubation
In the case of “5-(3,3-Dimethyl-but-1-ynyl)-3-{(trans-4-methyl-cyclohexanecarbonyl)-[trans-4-(1-oxy-pyridin-3-yloxy)-cyclohexyl]-amino}-thiophene-2-carboxylic acid [Compound 24]”, the “% inhibition at 2μM” value is reported as 99.9%.
With “5-(3,3-dimethylbut-1-ynyl)-3-((1r,4R)-4-methyl-N-((1s,4S)-4-(oxetan-3-yloxy)cyclohexyl)cyclohexanecarboxamido)-5-(2-(1-(trifluoromethyl)cyclopropyl)ethynyl)thiophene-2-carboxylic acid [Compound 347]” the “% inhibition at 2μM” value was 99.97%.
In the case of `CC1=CCC(C(=O)N(c2cc(C#CC(C)(C)C)sc2C(=O)O)[C@H]2CC[C@H](O[C@@H]3CCOC3)CC2)[C@H](C)C1` (single isomer, unassigned) [Compound 306, 5-(3,3-Dimethyl-but-1-ynyl)-3-{(4,6R-dimethyl-cyclohex-3-enecarbonyl)-[4-(tetrahydro-furan-3R-yloxy)-trans-cyclohexyl]-amino}-thiophene-2-carboxylic acid], the “% inhibition at 2μM” value is reported as 99.99%.
With `CC1=CCC(C(=O)N(c2cc(C#CC(C)(C)C)sc2C(=O)O)[C@H]2CC[C@H](O[C@@H]3CCOC3)CC2)[C@@H](C)C1` (single isomer, unassigned) [Compound 308, 5-(3,3-Dimethyl-but-1-ynyl)-3-{(4,6S-dimethyl-cyclohex-3-enecarbonyl)-[4-(tetrahydro-furan-3R-yloxy)-trans-cyclohexyl]-amino}-thiophene-2-carboxylic acid] the “% inhibition at 2μM” value was 99.99%.
